Data as given in patent US20220233661A1, “METHOD OF DETERMINING ELIGIBILITY OF CANCER PATIENT FOR PEPTIDE VACCINE THERAPY” (priority 2019, published 2022).

Experiments:
[1] = test system: cancer patients; experiment: Test Example 4: correlation between vaccination with individual peptides (or peptide sets) and OS, Cox proportional hazards regression; format: in vivo, human; conditions: for HR: Cox proportional hazards regression, OS; for Correlation between immune responses and OS: Negative (mOS) / Correlation between immune responses and OS: Positive (mOS): Table 20, <64% neutrophil and ≥26% lymphocyte; for Correlation between immune responses and OS: Negative (mOS): vaccinated patients with negative IgG response; for Correlation between immune responses and OS: Positive (mOS): vaccinated patients with positive IgG response
Procedure: The Student's t-test and the chi-square test were used to compare quantitative and categorical variables, respectively. OS was calculated as the time in months from the date of clinical trial enrollment to death or to the date of last contact. Time-to-event endpoints were analyzed using the Kaplan-Meier method, and between-group comparison for OS was conducted using the log-rank test. Clinical efficacy of the individual peptides for OS was evaluated by univariate and multivariate analyses with the Cox proportional hazards regression model, and HR and 95% CI were calculated. All reported p-values were two-sided, and p-values less than 0.05 were considered significant. JMP version 12 or SAS version 9.4 software (SAS Institute Inc., Cary, N.C.) was used to perform all analyses.
Correlation levels of the 31 peptides for OS were evaluated by the Cox proportional hazards regression model.
Similarly, in the 2,085 advanced cancer patients (stage IV+recurrence) and the 503 non-advanced cancer patients (I-III stages) correlation levels of the 31 peptides for OS were evaluated by the Cox proportional hazards regression model. […]

[2] = test system: anti-peptide IgG in plasma; experiment: Test Example 4: peptide-specific IgG titer pre and post vaccination, bead-based multiplexed Luminex assay; format: in vivo, human; conditions: for Pre-vaccination IgG Negative (number of patients) / Pre-vaccination IgG Positive (number of patients): cut off 10 FIU; for Post vaccination IgG: number of (positive) patients among vaccinated: positive IgG response; for Pre-vaccination IgG Negative patients: number of 2,588 patients below 10 FIU; for Pre-vaccination IgG Positive patients: number of 2,588 patients with ≥10 FIU; for Post vaccination IgG: (positive) patients: number of vaccinated patients with positive IgG response; for Correlation between immune responses and OS: Negative (mOS): patients with negative post-vaccination IgG response to the peptide; for Correlation between immune responses and OS: Positive (mOS): patients with positive post-vaccination IgG response to the peptide
Procedure: As described previously, IgG titer specific to the antigen peptides in plasma was measured by bead-based multiplexed Luminex assay (Luminex, Austin, Tex.) before and after vaccination, i.e., at the end of each cycle or at the end of the clinical trial (Non-Patent Literature 4). In brief, 30 mL of peripheral blood was obtained before and after vaccination. Plasma was incubated with 100 μL of peptide-coupled color-coded beads for 2 hours at 25° C. on a plate shaker. After the incubation, the resultant mixture was washed with a vacuum manifold apparatus and incubated with 100 μL of biotinylated goat anti-human IgG (gamma chain-specific; Vector Laboratories, Burlingame, Calif.) for 1 hour at 25° C. on a plate shaker. The plate was then washed, followed by addition of 100 μL of streptavidin-PE (Life Technologies) to each well, and incubation for 30 minutes at 25° C. on a plate shaker. The resultant beads were washed 4 times, followed by addition of 100 μL of Tween-PBS to each well, and detection of fluorescence intensity units (FIU) on the beads using the Luminex system. The cutoff values of anti-peptide IgG were set to 10 FIU in 100-fold diluted samples.
Pre-vaccination peptide-specific IgG titers to 31 peptides were measured using a Luminex system. As a detectable IgG level, 10 FIU was employed as the cut off level, as reported previously (Noguchi M, et al., Cancer Immunol Immunother. 2013 May; 62(5): 919-29; Sasada T, et al., Current Medicinal Chemistry. 21: 2332-2345, 2014; Kibe S, et al., Cancer Immunology Research 2014; 2(12): 1154-62).
Post-vaccination lgG titers were measured at the ends of the first cycle and the second cycle.

[3] = 2,085 advanced cancer patients (stage IV+recurrence)
[4] = Table 18, all 2,588 cases, vaccinated vs non-vaccinated
[5] = Table 18, all 2,588 cases, median OS of patients under PPV containing the peptide
[6] = Table 18, all 2,588 cases, median OS of patients under PPV not containing the peptide
[7] = Table 19, 2,085 advanced cancer patients (stage IV+recurrence)
[8] = Table 19, 2,085 advanced cancer patients (stage IV+recurrence), PPV containing the peptide
[9] = Table 19, 2,085 advanced cancer patients (stage IV+recurrence), PPV not containing the peptide
[10] = Table 21, patients showing both <64% neutrophil and ≥26% lymphocyte
[11] = Table 21, patients showing both <64% neutrophil and ≥26% lymphocyte, PPV containing the peptide
[12] = Table 21, patients showing both <64% neutrophil and ≥26% lymphocyte, PPV not containing the peptide
[13] = Table 20, patients showing both <64% neutrophil and ≥26% lymphocyte
[14] = patients showing detectable levels
[15] = patients showing positive responses

Sequence	HR [1, 4]	Vaccinate cases (mOS) [1, 5]	Non-vaccinate cases (mOS) [1, 6]	HR [1, 7]	Vaccinate cases (mOS) [1, 8]	Non-vaccinate cases (mOS) [1, 9]	Correlation between immune responses and OS: Negative (mOS) [1]	Correlation between immune responses and OS: Positive (mOS) [1]	HR [1, 10]	Vaccinate cases (mOS) [1, 11]	Non-vaccinate cases (mOS) [1, 12]	Post vaccination IgG Median (FIU) [2, 13]	Pre-vaccination IgG Median (FIU) [2, 13]	Pre-vaccination IgG Negative (number of patients) [2, 13]	Pre-vaccination IgG Positive (number of patients) [2, 13]	Post vaccination IgG: number of (positive) patients among vaccinated [2, 13]	Pre-vaccination IgG Negative patients [2]	Pre-vaccination IgG Positive patients [2]	Post vaccination IgG: (positive) patients [2]	Pre-vaccination IgG Median (FIU) [2, 14]	further results
ALVEFEDVL (listed as Homo sapiens) [HNRPL-140]	0.8	200(12.9) M	850(11.1) M	0.8	162(12.1) M	700(10.0) M	10.4 months	26.2 months	0.8	103(19.0) M	331(15.6) M	7,150 FIU	37 FIU	505	561	103(68)	1,293	1,295	200(111)	39 FIU	median OS of non-vaccinated cases [1, 3]: 10 months; median OS of vaccinated cases [1, 3]: 12.1 months; median OS of vaccinated cases ([1]; all 2,588 cases, PPV containing the peptide): 12.9 months; median OS of non-vaccinated cases ([1]; all 2,588 cases, PPV not containing the peptide): 11.1 months; Post vaccination IgG Median (FIU) [2, 15]: 8,576 FIU; Correlation between immune responses and OS: Negative (mOS) [2]: 9.8 months; Correlation between immune responses and OS: Positive (mOS) [2]: 23.9 months
KLVERLGAA (listed as Homo sapiens) [Lck-246]	1.0	366(11.4) M	684(11.6) M	1.0	300(9.8) M	562(10.4) M	8.7 months	28.2 months	1.1	161(15.4) M	273(18.2) M	15,377 FIU	48 FIU	299	767	161(92)	773	1,815	366(169)	49 FIU	Post vaccination IgG Median (FIU) [2, 15]: 10,806 FIU; Correlation between immune responses and OS: Negative (mOS) [2]: 8.3 months; Correlation between immune responses and OS: Positive (mOS) [2]: 19.3 months
TYSVSFDSL (listed as Homo sapiens) [PSMA-624]	1.0	101(11.7) M	1,449(12.0) M	1.1	78(7.9) M	1168(10.7) M	21.2 months	24.4 months	0.9	37(21.2) M	588(18.0) M	10,984 FIU	26 FIU	680	386	37(26)	1,638	950	101(50)	24 FIU	Post vaccination IgG Median (FIU) [2, 15]: 7,772 FIU; Correlation between immune responses and OS: Negative (mOS) [2]: 5.5 months; Correlation between immune responses and OS: Positive (mOS) [2]: 21.7 months
QIRPIFSNR (listed as Homo sapiens) [SART3-734]	1.0	625(10.9) M	589(11.3) M	1.0	502(9.5) M	467(10.2) M	14.8 months	29.3 months	0.9	253(17.9) M	254(17.5) M	7,098 FIU	96 FIU	231	835	253(116)	547	2,041	625(225)	111 FIU	Post vaccination IgG Median (FIU) [2, 15]: 4,816 FIU; Correlation between immune responses and OS: Negative (mOS) [2]: 11.0 months; Correlation between immune responses and OS: Positive (mOS) [2]: 22.3 months
LLQAEAPRL (listed as Homo sapiens) [SART3-302]	0.9	408(12.7) M	642(10.5) M	0.9	328(11.4) M	534(9.8) M	10.8 months	21.2 months	0.9	173(18.1) M	261(16.3) M	17,719 FIU	84 FIU	375	691	173(138)	948	1,640	408(271)	84 FIU	Post vaccination IgG Median (FIU) [2, 15]: 14,958 FIU; Correlation between immune responses and OS: Negative (mOS) [2]: 9.1 months; Correlation between immune responses and OS: Positive (mOS) [2]: 18.2 months
